Like-named read-outs stand apart in the source and are kept apart here.

The target in one assay is human plasma kallikrein (Homo sapiens, UniProt P03952). The assay can be described thus: Kallikrein inhibition assay utilizing a quenched AMC peptide substrate (FLINT). The assay is classed as biochemical. The note with it: 30 min preincubation, 50 μM Z-Gly-Pro-Arg-AMC, 2 nM kallikrein. An excerpt:
Biological Example 2: Kallikrein Inhibition Assay Utilizing a Quenched AMC Peptide Substrate
A fluorescence intensity (FLINT) based assay was used to monitor inhibition of human plasma kallikrein. The peptide substrate, Z-Gly-Pro-Arg-AMC (Purchased from Bachem; Catalog #1-1150) was chosen based on its relatively low KM for kallikrein which enables running the assay at lower substrate concentrations to control background fluorescence.
The Kallikrein FLINT assay was used with the following Z-Gly-Pro-Arg-AMC assay buffer: 50 mM Tris, pH 7.5, 100 mM NaCl, 5 mM CaCl2), 0.1 mg/mL BSA, 0.03% CHAPS. Assay buffer was prepared by mixing all ingredients fresh. 2× Z-Gly-Pro-Arg-AMC peptide substrate was prepared by diluting 10 mM stock into 1× assay buffer for a 100 μM working concentration (50 μM final concentration). The 2× kallikrein stock solution was prepared by diluting 14.76 μM stock in 1× assay buffer for a 4 nM working stock solution (2 nM final concentration).
Test compound(s) were run in an 11-point, 3-fold serial dilution with a final top compound concentration of 1 μM. Final DMSO in assay was 2%. Plasma kallikrein was pre-incubated for 30-minute with compound and then 50 μM substrate was added to initiate the reaction. The assay was run with kinetic (KIN) reads at 5 min intervals over 30 minutes. The time course was linear using 2 nM kallikrein greater than 30 minutes. More specifically, the assay was run as follows: • 100 nL of 0.1 mM test compound was dispensed into black 384-well non-binding Greiner BioOne 784900 plate for 1 μM final concentration; • 5 μL of 1× assay buffer was dispensed to columns 24 (low control) and 5 μL 2× human kallikrein enzyme solution was dispensed to columns 1-23 (column 23 high control); • the plate was centrifuged with a “cover” plate at 500 rpm for 1 min • the plate was pre-incubated for 30 minutes at room temperature with plate covered; • 5 μL of 2× Z-Gly-Pro-Arg-AMC peptide substrate was dispensed into the entire plate, columns 1-24; • the plate was centrifuged with a “cover” plate at 500 rpm for 1 min; the plate was read monitoring fluorescence intensity on the BMG PHERAStar at room temperature, using fluorescence module 340 nm/440 nm.
Percent inhibition (IC50) curves were generated per compound tested, and data was analyzed using a 4-parameter logistic fit using GeneData Screener. The relative fluorescence unit (RFU) values were normalized to percent inhibition using the following equation: % inhibition=((HC−LC)−(compound−LC)/(HC−LC))*100 where LC—low control=mean signal of human kallikrein enzyme or 100% inhibition of human kallikrein enzyme; HC—high control=mean signal of […]+Z-Gly-Pro-Arg-AMC peptide substrate with DMSO only.
An 11-point dose response curve for the test compound(s) was generated using GENDATA to determine IC50 value based on the following equation: Y=Bottom+(Top−Bottom)/(1+10^((log IC50−X)*HillSlope)) • where Y is the % inhibition in the presence of X inhibitor concentration, Top=high control=mean signal of human kallikrein enzyme+Z-Gly-Pro-Arg-AMC peptide substrate with DMSO only; Bottom=low control−mean signal of no human kallikrein enzyme or 100% inhibition of human kallikrein enzyme; HillSlope—Hill coefficient; and IC50=concentration of compound with 50% inhibition in relation to top/high control.
(§1) Representative compounds of formula (I) of the present invention were tested according to the procedure described in Biological Example 1 and Biological Example 2 above, with results as listed in Table 3, below.

Another assay concerns the target Factor XIa (Homo sapiens, UniProt P03951). Kind of assay: Factor XIa inhibition assay utilizing a fluorophore-quencher pair peptide substrate (FLINT). In kind it is biochemical. The note with it: for IC50: read-out: FXIa IC50; for Ki: read-out: FXIa Ki.
Source text: Biological Example 1: Factor XIa Inhibition Assay Utilizing a Fluorophore-Quencher Pair Peptide Substrate
A fluorescence intensity (FLINT) based assay was used to monitor inhibition of Factor XIa. The peptide substrate, 5Fam-KLTRAETV-K5Tamra (purchased from New England Peptide) was chosen based on the FXI sequence. Conversion of zymogen FXI to its activated form, FXIa, occurs by proteolytic cleavage by […] at two sites, Arg146 and Arg180. The custom peptide used in this assay was based on the Arg146 cleavage site of FXI. The peptide substrate was designed with a fluorophore-quencher pair, where the fluorescence is quenched until FXIa cleaves the 8-mer peptide after the Arg residue.
The Factor XIa FLINT assay was used with the following 5Fam-KLTRAETV-K5Tamra assay buffer: 50 mM Tris, pH 7.5, 100 mM NaCl, 5 mM CaCl2), 0.1 mg/mL BSA, 0.03% CHAPS. Assay buffer was prepared by mixing all ingredients fresh. 5Fam-KLTRAETV-K5Tamra peptide substrate was first prepared at 10 mM in 100% DMSO, then diluted to 3 mM in 100% DMSO. Assay buffer was then added directly to the 3 mM stock of substrate to prepare the 30 μM 2× working concentration (15 μM final concentration). The 2× Factor XIa stock solution was prepared by diluting 6.562 μM stock in 1× assay buffer for a […].
Test compound(s) were run in an 11-point, 3-fold serial dilution with a final top compound concentration of 100 nM. Final DMSO in assay was 2%. FXIa was preincubated with compound for 30-minutes and then substrate was added to initiate the reaction. The assay was run with kinetic (KIN) reads at 5 min intervals over 30 minutes. The time course was linear using […] FXIa greater than 30 minutes. More specifically, the assay was run as follows: • 100 nL of 0.01 mM test compound was dispensed into black 384-well non-binding Greiner BioOne 784900 plate for 0.1 μM final concentration; • 5 μL of 1× assay buffer was dispensed to column 24 (low control) and 5 μL 2× Factor XIa solution was dispensed to columns 1-23 (column 23 high control); • the plate was centrifuged with a “cover” plate at 500 rpm for 1 min • the plate was pre-incubated for 30 minutes at room temperature with plate covered; • 5 μL of 2×5Fam-KLTRAETV-K5Tamra peptide substrate was dispensed into the entire plate, columns 1-24; • the plate was centrifuged with a “cover” plate at 500 rpm for 1 min; • the plate was read monitoring fluorescence intensity on the BMG PHERAStar at room temperature, using fluorescence module 485 nm/520 nm.
Percent inhibition (IC50) curves were generated per compound tested, and data was analyzed using a 4-parameter logistic fit using GeneData Screener. The relative fluorescence unit (RFU) values were normalized to percent inhibition using the following equation: % inhibition=((HC−LC)−(compound−LC)/(HC−LC))*100
where LC−low control=mean signal of no Factor XIa or 100% inhibition of Factor XIa; HC−high control=mean signal of Factor XIa+5Fam-KLTRAETV-K5Tamra peptide substrate with DMSO only.
An 11-point dose response curve for the test compound(s) was generated using GENDATA to determine IC50 value based on the following equation: Y=Bottom+(Top−Bottom)/(1+10^((log IC50−X)*HillSlope))
where Y is the % inhibition in the presence of X inhibitor concentration, Top=high control=mean signal of Factor XIa+5Fam-KLTRAETV-K5Tamra peptide substrate with DMSO only; Bottom=low control−mean signal of no Factor XIa or 100% inhibition of Factor XIa; HillSlope−Hill coefficient; and IC50=concentration of compound with 50% inhibition in relation to top/high control.
as §1

The mark [1] stands for this setting: 30 min preincubation, 5Fam-KLTRAETV-K5Tamra substrate 15 μM final, kinetic reads.
The mark [2] stands for this setting: cells that print μM themselves in the nM column.
Where [3] appears, read: cells that print μM themselves in the nM column, same assay conditions.

Factor XIa, sequence (P03951 388-625 limits assumed): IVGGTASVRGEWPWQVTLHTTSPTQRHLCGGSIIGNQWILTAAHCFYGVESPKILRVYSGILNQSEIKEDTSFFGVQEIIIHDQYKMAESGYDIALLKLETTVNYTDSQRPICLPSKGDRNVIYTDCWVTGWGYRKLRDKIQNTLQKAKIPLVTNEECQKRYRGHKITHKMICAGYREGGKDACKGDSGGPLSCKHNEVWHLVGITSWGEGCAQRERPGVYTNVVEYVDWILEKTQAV
Factor XIa, sequence (P03951 19-387 partner limits assumed): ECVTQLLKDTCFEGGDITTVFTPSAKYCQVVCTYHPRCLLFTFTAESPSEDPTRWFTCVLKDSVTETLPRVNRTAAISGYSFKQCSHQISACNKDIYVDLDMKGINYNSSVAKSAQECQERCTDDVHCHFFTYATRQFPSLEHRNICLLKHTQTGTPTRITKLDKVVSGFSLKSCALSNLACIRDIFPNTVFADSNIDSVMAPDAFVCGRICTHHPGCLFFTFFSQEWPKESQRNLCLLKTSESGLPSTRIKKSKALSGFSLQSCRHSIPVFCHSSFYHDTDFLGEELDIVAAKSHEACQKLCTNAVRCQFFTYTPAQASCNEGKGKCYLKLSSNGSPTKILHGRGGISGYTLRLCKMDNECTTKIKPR
human plasma kallikrein, sequence (P03952 391-638 limits assumed): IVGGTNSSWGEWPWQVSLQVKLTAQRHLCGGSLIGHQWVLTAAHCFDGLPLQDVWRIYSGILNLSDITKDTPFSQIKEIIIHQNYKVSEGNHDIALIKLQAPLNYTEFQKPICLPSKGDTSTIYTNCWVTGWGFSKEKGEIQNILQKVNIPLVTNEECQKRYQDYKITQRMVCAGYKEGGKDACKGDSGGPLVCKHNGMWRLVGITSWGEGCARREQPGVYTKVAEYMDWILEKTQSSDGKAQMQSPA
human plasma kallikrein, sequence (P03952 20-390 partner limits assumed): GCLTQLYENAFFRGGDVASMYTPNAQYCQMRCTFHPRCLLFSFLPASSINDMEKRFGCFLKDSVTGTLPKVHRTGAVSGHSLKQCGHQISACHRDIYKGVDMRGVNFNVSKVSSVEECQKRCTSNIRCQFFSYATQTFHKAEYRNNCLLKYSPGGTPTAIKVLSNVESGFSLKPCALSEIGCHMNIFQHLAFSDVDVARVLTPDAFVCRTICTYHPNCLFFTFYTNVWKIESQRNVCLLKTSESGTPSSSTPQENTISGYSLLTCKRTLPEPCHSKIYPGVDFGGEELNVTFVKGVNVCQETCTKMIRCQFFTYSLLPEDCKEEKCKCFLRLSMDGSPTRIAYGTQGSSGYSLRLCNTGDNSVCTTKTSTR

A word on the IC50: it is the concentration that inhibits the measured activity by half. A word on the Ki: it is the equilibrium dissociation constant of an inhibitor or competing ligand from its target. With `O=C1NC2(CC2)Cc2ccc(Cl)c(F)c2-c2cc(=O)n(C(CC3CC3)c3ncc(-c4cc[n+]([O-])cc4)[nH]3)cc21` (single isomer, unassigned) [Compound 56, (S*)-4-(2-(1-(11-chloro-12-fluoro-2,5-dioxo-2,5,6,8-tetrahydro-3H-spiro[benzo[e]pyrido[3,4-c]azocine-7,1′-cyclopropan]-3-yl)-2-cyclopropylethyl)-1H-imidazol-5-yl)pyridine 1-oxide], the IC50 against human plasma kallikrein is above 10 µM; on Factor XIa (setting [1]) it was 0.882 µM. The Ki on Factor XIa was 0.441 µM.
`O=C1NC2(CC2)Cc2ccc(Cl)c(F)c2-c2cc(=O)n(C(CC3CC3)c3ncc(-c4cc[n+]([O-])cc4)[nH]3)cc21` (single isomer, unassigned) [Compound 57, (R*)-4-(2-(1-(11-chloro-12-fluoro-2,5-dioxo-2,5,6,8-tetrahydro-3H-spiro[benzo[e]pyrido[3,4-c]azocine-7,1′-cyclopropan]-3-yl)-2-cyclopropylethyl)-1H-imidazol-5-yl)pyridine 1-oxide]: the values for the IC50 against human plasma kallikrein and on Factor XIa (setting [3]) were above 10 µM and 9.69 µM, respectively. Also, the Ki on Factor XIa (setting [2]) worked out at 4.84 µM.
For `Cn1ncc(-c2cnc(C(CC3CC3)n3cc4c(cc3=O)-c3c(ccc(Cl)c3F)CC3(CC3)NC4=O)[nH]2)cc1=O` (single isomer, unassigned) [Compound 58, (R*)-11-chloro-3-(2-cyclopropyl-1-(5-(1-methyl-6-oxo-1,6-dihydropyridazin-4-yl)-1H-imidazol-2-yl)ethyl)-12-fluoro-3H-spiro[benzo[e]pyrido[3,4-c]azocine-7,1′-cyclopropane]-2,5(6H,8H)-dione], in that order: above 10 µM, above 10 µM and above 5 µM.
For `Cn1ncc(-c2cnc(C(CC3CC3)n3cc4c(cc3=O)-c3c(ccc(Cl)c3F)CC3(CC3)NC4=O)[nH]2)cc1=O` (single isomer, unassigned) [Compound 59, (S*)-11-chloro-3-(2-cyclopropyl-1-(5-(1-methyl-6-oxo-1,6-dihydropyridazin-4-yl)-1H-imidazol-2-yl)ethyl)-12-fluoro-3H-spiro[benzo[e]pyrido[3,4-c]azocine-7,1′-cyclopropane]-2,5(6H,8H)-dione], in that order: above 10 µM, 4.39 µM and 2.19 µM.
For `Cn1cc(-c2cnc(C(CC3CC3)n3cc4c(cc3=O)-c3c(ccc(Cl)c3F)CC3(CC3)NC4=O)[nH]2)ccc1=O` (single isomer, unassigned) [Compound 60, (R*)-11-chloro-3-(2-cyclopropyl-1-(5-(1-methyl-6-oxo-1,6-dihydropyridin-3-yl)-1H-imidazol-2-yl)ethyl)-12-fluoro-3H-spiro[benzo[e]pyrido[3,4-c]azocine-7,1′-cyclopropane]-2,5(6H,8H)-dione], in that order: above 10 µM, around 9.61 µM and around 4.81 µM.
In the case of `COC(=O)Nc1ccc(-c2cnc(C(CC3CC3)n3cc4c(cc3=O)-c3c(ccc(Cl)c3F)CC3(CC3)NC4=O)[nH]2)cc1` (single isomer, unassigned) [Compound 62, Methyl (R*)-(4-(2-(1-(11-chloro-12-fluoro-2,5-dioxo-2,5,6,8-tetrahydro-3H-spiro[benzo[e]pyrido[3,4-c]azocine-7,1′-cyclopropan]-3-yl)-2-cyclopropylethyl)-1H-imidazol-5-yl)phenyl)carbamate], the IC50 against human plasma kallikrein is 5.37 µM; on Factor XIa (setting [1]) it was 0.0486 µM. Moreover, the Ki at Factor XIa is 0.0243 µM.
In the case of `Cn1cc(-c2cnc(C(CC3CC3)n3cc4c(cc3=O)-c3c(ccc(Cl)c3F)CC3(CC3)NC4=O)[nH]2)ccc1=O` (single isomer, unassigned) [Compound 63, (S*)-11-chloro-3-(2-cyclopropyl-1-(5-(1-methyl-6-oxo-1,6-dihydropyridin-3-yl)-1H-imidazol-2-yl)ethyl)-12-fluoro-3H-spiro[benzo[e]pyrido[3,4-c]azocine-7,1′-cyclopropan]-2,5(6H,8H)-dione], the IC50 against human plasma kallikrein is above 10 µM; on Factor XIa (setting [3]) it was 1.16 µM. The Ki at Factor XIa turned out to be 0.578 µM.
In the case of `O=C1NC2(CC2)Cc2ccc(Cl)c(F)c2-c2cc(=O)n(C(CC3CC3)c3ncc(-c4ccc(F)cc4)[nH]3)cc21` (single isomer, unassigned) [Compound 64, (R*)-11-chloro-3-(2-cyclopropyl-1-(5-(4-fluorophenyl)-1H-imidazol-2-yl)ethyl)-12-fluoro-3H-spiro[benzo[e]pyrido[3,4-c]azocine-7,1′-cyclopropane]-2,5(6H,8H)-dione], the IC50 was above 10 µM against human plasma kallikrein and 1.13 µM on Factor XIa (setting [3]). In addition, the inhibition constant Ki on Factor XIa came out at 0.564 µM.
Consider `O=C1NC2(CC2)Cc2ccc(Cl)c(F)c2-c2cc(=O)n(C(CC3CC3)c3ncc(-c4ccc(F)cc4)[nH]3)cc21` (single isomer, unassigned) [Compound 65, (S*)-11-chloro-3-(2-cyclopropyl-1-(5-(4-fluorophenyl)-1H-imidazol-2-yl)ethyl)-12-fluoro-3H-spiro[benzo[e]pyrido[3,4-c]azocine-7,1′-cyclopropane]-2,5(6H,8H)-dione], for which the IC50 at human plasma kallikrein was 5.72 µM; at Factor XIa (setting [1]), 0.102 µM. In addition, at Factor XIa, the Ki was determined as 0.0508 µM.
